Where two headings read alike, the source gives them in different places.
Assays:
LBD of LXRβ = molecular target: T1, LBD of LXRβ (Homo sapiens, UniProt P55055); assay: LanthaScreen TR-FRET LXRβ coactivator assay (LXR binding assay); assay type: biochemical; conditions: agonist; average values; read-out: LXRβ EC50
T1 construct: purchased Thermo Fisher Scientific
T1 sequence (P55055 222-460 limits assumed): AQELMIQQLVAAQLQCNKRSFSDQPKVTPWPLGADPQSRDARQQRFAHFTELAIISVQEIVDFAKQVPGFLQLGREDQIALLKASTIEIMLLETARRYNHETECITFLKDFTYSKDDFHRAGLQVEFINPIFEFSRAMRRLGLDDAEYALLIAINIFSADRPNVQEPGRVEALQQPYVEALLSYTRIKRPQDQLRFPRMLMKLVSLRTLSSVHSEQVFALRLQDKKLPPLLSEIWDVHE
Protocol: (§1) Binding assays of graded concentrations of vitamin D3 or lumisterol hydroxyderivatives to LXRα/β were performed using the LanthaScreen TR-FRET LXRα/β Coactivator kit (Thermo Fisher Scientific, Inc., Waltham, MA) following the manufacture’s protocol. Briefly, after addition of LXRα/β-LBD to the derivatives, a mixture of peptide (Fluorescein-TRAP220/DRIP-2 for LXRα or Fluorescein-D22 for LXRβ) and antibody (Tb-anti-GST) was added to the reaction followed by incubation in room temperature for 2 h. TR-FRET ratio was calculated by dividing the emission at 520 nm by the emission at 495 nm using Synergy neo2 (BioTek, Winooski, VT).

ABCA1 = assay: qPCR of ABCA1 in HaCaT keratinocytes; assay type: cell-based, human; conditions: 10^–7 M
Protocol: HaCaT keratinocytes were cultured as described previously. For RNA isolation the cells were maintained in TPP tissue culture petri dishes (Ø60 mm, 22.1 cm^2) in DMEM containing 10% cFBC to reach semi-confluence and then exposed to 10^–7 M compounds or a corresponding concentration of ethanol solvent.
(§2) RNA isolated from either fibroblasts, HaCaT cells or brain was submitted for cDNA synthesis (High Capacity cDNA Reverse Transcription Kit with RNase Inhibitor, Applied Biosystems) following the manufacturers’ protocols. RT-PCR was carried out using Cyber green, in triplicates; as previously described. Approximately, 750 ng of cDNA was used for PCR reactions. GAPDH and CIC-B were used as internal controls. Primer sequences are listed in Supplementary Table 27. Data were analyzed using GraphPad Prism statistical software one way ANOVA or t-test, where appropriate; *p < 0.05; **p < 0.01; ***p < 0.001.

VDR = molecular target: T2, VDR (Homo sapiens, UniProt P11473); assay: Translocation of VDR to the nucleus, imaging flow cytometry in HaCaT; assay type: cell-based; conditions: 10^–7 M, 12 h
T2 construct: endogenous in cells; host or cells: HaCaT keratinocytes
T2 sequence (P11473 1-427): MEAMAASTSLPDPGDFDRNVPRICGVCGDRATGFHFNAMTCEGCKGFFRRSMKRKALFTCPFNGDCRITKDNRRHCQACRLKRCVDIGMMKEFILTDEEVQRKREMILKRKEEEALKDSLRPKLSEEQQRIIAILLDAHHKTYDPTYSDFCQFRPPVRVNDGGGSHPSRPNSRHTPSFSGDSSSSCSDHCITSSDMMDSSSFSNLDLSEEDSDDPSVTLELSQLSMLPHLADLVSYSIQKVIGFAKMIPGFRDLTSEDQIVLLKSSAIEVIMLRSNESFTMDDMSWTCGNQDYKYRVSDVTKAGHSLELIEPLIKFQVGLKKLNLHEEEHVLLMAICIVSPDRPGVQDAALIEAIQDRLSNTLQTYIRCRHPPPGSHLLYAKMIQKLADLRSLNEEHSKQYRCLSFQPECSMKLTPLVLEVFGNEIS

LBD of LXRα = molecular target: T3, LBD of LXRα (Homo sapiens, UniProt Q13133); assay: LanthaScreen TR-FRET LXRα coactivator assay (LXR binding assay); assay type: biochemical; conditions: average values; for EC50: agonist, read-out: LXRα EC50; for IC50: inverse agonist
T3 construct: after addition of LXRα/β-LBD to the derivatives; purchased Thermo Fisher Scientific
T3 sequence (Q13133 209-447 limits assumed): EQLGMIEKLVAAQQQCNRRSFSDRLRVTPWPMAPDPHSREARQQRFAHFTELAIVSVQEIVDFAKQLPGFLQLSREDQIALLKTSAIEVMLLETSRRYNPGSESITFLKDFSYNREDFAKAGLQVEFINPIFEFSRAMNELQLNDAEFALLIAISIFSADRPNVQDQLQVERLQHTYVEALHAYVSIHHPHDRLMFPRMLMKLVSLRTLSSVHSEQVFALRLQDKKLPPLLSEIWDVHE
Protocol: as §1

genes downstream of LXR = assay: qPCR of genes downstream of LXR in murine dermal fibroblasts; assay type: cell-based, mouse; conditions: 10^–7 M, 24 h
Protocol: All animal studies followed guidelines outlined by the NIH Guide for the Care and Use of Laboratory Animals and protocols were approved by the Institutional Animal Care and Use Committee at the NIEHS or the UAB. The study was carried out in compliance with the ARRIVE guidelines (http://www.nc3rs.org.uk/page.asp?id=1357). Skin samples from newborn C57BL/6 mice were collected at the NIEHS. Dermal fibroblasts were isolated from the skin of newborn mice, 1–2 day old. Briefly, we followed the protocols described previously. The skin was washed in PBS, cut into smaller pieces and incubated in 2.4 U/ml of dispase II (Roche) overnight at 4 °C. The dermis was separated from the epidermis and incubated in 0.1% collagenase (Roche) at 4 °C overnight. Next day, it was cut into smaller pieces and incubated for 1 h in 0.25% Trypsin (CellGrow) at 37 °C. Single cell suspension was prepared by pipetting and draining through a cell strainer. After centrifugation, cell pellets were suspended in DMEM medium containing 10% charcoal-stripped fetal bovine serum (cFBS), mouse fibroblasts growth factor (FGF) and 1% antibiotic, and inoculated into tissue culture dishes (Midwest Scientific, TPP). Cells, in early passages, from different mice were pooled together to provide representative samples for experiments. Fibroblasts were cultured in Petri dishes (10 cm in diameter) in DMEM and 10% cFBS and triplicate semi-confluent cultures were treated as described.
as §2

ABCA1 gene = conditions: HaCaT cells, 10^–7 M, microarray GSE117351 ref 44, cited from earlier work
[1] = system: LXR-response element (LXRE)-driven reporter in CHO cells; assay: LXRE-driven luciferase reporter assay in CHO cells; assay type: cell-based; conditions: 10^–7 M, CHO and HaCaT cells (Fig. 4C)
Protocol: The effects of vitamin D3 and L3 hydroxyderivatives were tested on the LXRE transcriptional activity using pGreenFire1-LXRE-in-ApoE Lentivirus (System Biosciences, Palo Alto, CA). This plasmid was transduced in CHO and HaCaT cells following the manufacture’s protocol and the cells used as a stable LXRE expressed tool. Briefly, the virus was transduced into the cells using TransDux MAX Lentivirus Transduction Enhancer (System Biosciences, Palo Alto, CA) and screened to select the transduced cells using puromycin. The transduced cells were treated with the compounds for 24 h in media containing 5% cFBS (charcoal-treated fetal bovine serum) and the luminescence was read by ONE-Glo Luciferase Assay System (Promega, Madison, WI) using Cytation 5 (BioTek, Winooski, VT).

SMILES | EC50 (LBD of LXRβ) [µM] | ABCA1 RNA expression (qPCR) (ABCA1) | translocation of VDR from the cytoplasm to the nucleus (VDR) | EC50 (LBD of LXRα) [µM] | Cyp7a1 expression (genes downstream of LXR) | Fas (fatty acid synthase) expression (genes downstream of LXR) | ABCA1 expression, stimulation (ABCA1 gene; 6 h) [times] | ABCA1 expression, stimulation (ABCA1 gene; 24 h) [fold] | IC50 (LBD of LXRα) [µM] | LXRE luciferase (transcriptional) activity [1] | Abcg8 expression (genes downstream of LXR) | ApoE (apolipoprotein E) expression (genes downstream of LXR)
C=C1CC[C@H](O)C/C1=C/C=C1\CCC[C@@]2(C)[C@H]1CC[C@@H]2[C@@](C)(O)CCCC(C)C [20(OH)D3] | 2.6 | stimulation | increased translocation | 0.015 | stimulated | stimulated |  |  |  |  |  | 
C=C1/C(=C\C=C2/CCC[C@]3(C)[C@@H]([C@H](C)CCCC(C)(C)O)CC[C@@H]23)C[C@@H](O)C[C@@H]1O [1,25(OH)2D3, reference compound] | 14 | stimulation |  |  | stimulated | stimulated | 2.4 | 2.4 | 1.1 | strongest stimulatory effects |  | 
C=C1C(=CC=C2CCCC3(C)C2CCC3C(C)(O)CC(O)CC(C)C)CC(O)CC1O (centres unmarked) [1,20,23(OH)3D3] | 1.6 |  | increased translocation |  | inhibited | stimulated |  |  | 2.1 | strongest stimulatory effects |  | 
CC(C)CCC[C@](C)(O)[C@H]1CC[C@H]2[C@@H]3CC=C4C[C@@H](O)CC[C@]4(C)[C@H]3CC[C@@]21C [20(OH)C, 20-hydroxycholesterol, reference compound] |  |  |  |  | inhibited |  |  |  |  |  | inhibited | inhibited
C=C1CCC(O)CC1=CC=C1CCCC2(C)C1CCC2C(C)(O)CC(O)CC(C)C (centres unmarked) [20,23(OH)2D3] | 26 |  |  | 1.1 |  |  | 2.8 | 2.3 |  |  | induced | enhanced
